Calls of active or inactive are those of the source.
How the values were obtained:
X-box-binding protein 1 = X-box-binding protein 1 (Homo sapiens, UniProt P17861); format: functional, Cricetulus griseus;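 further: confirmatory dose-response counter-screen serving a CHOP assay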
HeLa = assay: viability loss in HeLa cells – cell-based, 24 h, cherry-picked samples, cytotoxicity control, dose response (AID 504726); format: functional; details: Homo sapiens;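 further: potency for cytotoxicity as loss of luminescence signal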
[1] = target: T1, Sentrin-specific protease 8 (Homo sapiens, UniProt Q96LD8); format: functional
T1 sequence (Q96LD8 whole entry): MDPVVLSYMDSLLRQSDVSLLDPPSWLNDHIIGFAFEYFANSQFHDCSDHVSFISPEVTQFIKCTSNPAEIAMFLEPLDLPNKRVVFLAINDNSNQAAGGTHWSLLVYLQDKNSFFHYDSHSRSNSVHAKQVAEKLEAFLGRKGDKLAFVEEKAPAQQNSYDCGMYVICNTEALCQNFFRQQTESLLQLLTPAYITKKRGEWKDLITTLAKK

[2] = target: T2, Tyrosyl-DNA phosphodiesterase 2 (Homo sapiens, UniProt O95551); assay: potency against TDP2 phosphodiesterase activity – biochemical, epi absorbance, IC50, dose response (AID 743297)
T2 sequence (O95551 whole entry): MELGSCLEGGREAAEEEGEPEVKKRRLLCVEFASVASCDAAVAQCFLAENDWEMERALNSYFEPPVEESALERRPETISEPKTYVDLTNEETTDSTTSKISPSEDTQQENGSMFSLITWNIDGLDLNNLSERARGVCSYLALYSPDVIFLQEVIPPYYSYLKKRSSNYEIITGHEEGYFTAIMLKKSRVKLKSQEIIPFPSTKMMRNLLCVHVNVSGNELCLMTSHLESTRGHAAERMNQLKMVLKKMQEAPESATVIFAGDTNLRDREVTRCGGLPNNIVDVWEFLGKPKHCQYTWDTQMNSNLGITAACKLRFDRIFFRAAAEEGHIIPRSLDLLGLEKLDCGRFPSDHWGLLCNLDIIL

Protein RecA = target: T3, Protein RecA (Mycobacterium tuberculosis, UniProt P9WHJ3); assay: Fluorescence Cell-Free Homogeneous Dose Retest to Identify Inhibitors of RecA-Intein Splicing Activity. [Related pubchem assays (depositor defined):AID2097, AID2223, AID489010, AID492950]; format: functional
T3 sequence (P9WHJ3 whole entry): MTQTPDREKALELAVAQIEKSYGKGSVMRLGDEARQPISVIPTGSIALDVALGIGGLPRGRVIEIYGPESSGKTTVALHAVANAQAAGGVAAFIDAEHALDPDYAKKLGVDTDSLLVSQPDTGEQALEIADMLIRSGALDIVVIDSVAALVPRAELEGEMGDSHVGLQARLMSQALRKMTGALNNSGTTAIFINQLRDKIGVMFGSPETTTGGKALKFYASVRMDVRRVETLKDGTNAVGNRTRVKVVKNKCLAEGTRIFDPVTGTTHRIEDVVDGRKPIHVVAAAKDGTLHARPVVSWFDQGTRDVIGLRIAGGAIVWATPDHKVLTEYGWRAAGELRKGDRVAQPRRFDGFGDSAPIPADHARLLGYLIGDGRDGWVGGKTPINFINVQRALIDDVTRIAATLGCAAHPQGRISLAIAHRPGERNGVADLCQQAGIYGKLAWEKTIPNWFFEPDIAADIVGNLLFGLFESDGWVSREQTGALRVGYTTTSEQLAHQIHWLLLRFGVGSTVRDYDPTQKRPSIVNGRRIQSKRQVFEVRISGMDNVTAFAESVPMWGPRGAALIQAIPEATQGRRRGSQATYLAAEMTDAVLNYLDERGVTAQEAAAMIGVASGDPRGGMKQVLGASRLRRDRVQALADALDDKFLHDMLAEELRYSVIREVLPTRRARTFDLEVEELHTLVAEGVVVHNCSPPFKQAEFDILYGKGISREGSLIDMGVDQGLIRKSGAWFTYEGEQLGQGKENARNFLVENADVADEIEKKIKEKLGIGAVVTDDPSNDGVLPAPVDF

[3] = target: T1, Sentrin-specific protease 8; format: functional; remark: listed apart in the source
[4] = target: Histone-lysine N-methyltransferase NSD2 (Homo sapiens, UniProt O96028); format: biochemical
Fibrinogen beta chain [5] = target: T4, Fibrinogen beta chain (Homo sapiens, UniProt P02675); assay: Fluorescence polarization-based biochemical high throughput dose response assay to identify inhibitors that disrupt the binding of a cyclic peptide (Tn6) to the fibrin proteolytic product D-Dimer and fragment E complex [DD(E )].
14-3-3 protein gamma = 14-3-3 protein gamma (Homo sapiens, UniProt P61981); assay: modulators of 14-3-3 gamma client binding – dose response (AID 711); format: functional
[6] = target: Glutathione-S-transferase (Schistosoma japonicum, UniProt Q26513); assay: GST-antibody interaction or FRET quenching – biochemical, TR-FRET, artefact control for Vif-APOBEC3G degradation inhibitor project, dose response (AID 1117362); format: functional
Fibrinogen beta chain [7] = target: T4, Fibrinogen beta chain; assay: Fluorescence polarization-based biochemical high throughput dose response assay to identify inhibitors that disrupt the binding of a cyclic peptide (Tn7) to the fibrin proteolytic product D-Dimer and fragment E complex [DD(E )].
[8] = target: T5, Replicative DNA helicase DnaB (Mycobacterium tuberculosis, UniProt P9WMR3); assay: DnaB intein splicing inhibitors, dose response, biochemical, cell-free fluorescence (AID 449749); format: functional
T5 sequence (P9WMR3 whole entry): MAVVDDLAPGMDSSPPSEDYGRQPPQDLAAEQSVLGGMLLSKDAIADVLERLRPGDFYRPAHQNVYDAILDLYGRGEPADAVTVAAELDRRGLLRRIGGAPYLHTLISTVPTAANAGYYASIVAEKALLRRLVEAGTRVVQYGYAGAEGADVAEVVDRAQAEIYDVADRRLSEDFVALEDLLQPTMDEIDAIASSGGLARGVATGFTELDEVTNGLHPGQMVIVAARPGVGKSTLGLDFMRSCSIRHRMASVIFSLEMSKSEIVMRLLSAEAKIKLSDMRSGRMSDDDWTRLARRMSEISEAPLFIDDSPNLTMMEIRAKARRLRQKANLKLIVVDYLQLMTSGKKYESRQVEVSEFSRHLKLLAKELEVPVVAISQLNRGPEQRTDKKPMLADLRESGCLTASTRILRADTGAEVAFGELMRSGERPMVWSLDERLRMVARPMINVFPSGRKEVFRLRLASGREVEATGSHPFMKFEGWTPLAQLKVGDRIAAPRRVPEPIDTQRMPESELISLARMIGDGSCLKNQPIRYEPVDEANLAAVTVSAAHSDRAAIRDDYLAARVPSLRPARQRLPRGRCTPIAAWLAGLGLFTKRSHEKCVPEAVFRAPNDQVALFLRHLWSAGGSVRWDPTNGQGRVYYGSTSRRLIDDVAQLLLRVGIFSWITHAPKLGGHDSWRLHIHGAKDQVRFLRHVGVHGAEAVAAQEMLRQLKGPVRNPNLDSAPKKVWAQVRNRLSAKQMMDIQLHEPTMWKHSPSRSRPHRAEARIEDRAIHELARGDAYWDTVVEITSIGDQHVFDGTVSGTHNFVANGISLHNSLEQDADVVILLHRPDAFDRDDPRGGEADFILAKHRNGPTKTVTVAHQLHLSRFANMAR

Beta-galactosidase = Beta-galactosidase (Escherichia coli, UniProt Q8VNN2); assay: detection-enzyme interference by beta-gal modulators – biochemical, E. coli enzyme, set 3, artefact control for CCR6 antagonist project, dose response (AID 504712); format: functional
[9] = target: C-C chemokine receptor type 6 (Homo sapiens, UniProt P51684); assay: antagonism of CCR6 beta-arrestin recruitment – cell-based, luminescent beta-arrestin readout, dose response (AID 504728); format: functional
Tumor necrosis factor = Tumor necrosis factor (Homo sapiens, UniProt P01375); assay: analog potency on TNFa NF-kB signaling – cell-based, revised, SAR follow-up (AID 2337); format: functional
[10] = target: Nucleotide-binding oligomerization domain-containing protein 2 (Homo sapiens, UniProt Q9HC29); assay: PubChem AID 2334; format: functional
HEK293 [11] = assay: cells; format: functional, cell-based; details: Homo sapiens
HEK293 [12] = assay: cells; details: Homo sapiens
[13] = antiviral protection against BTV-induced cell death – arbovirus, BSR cells, confirmation (AID 1250); format: functional;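 further: protection from viral cytopathic effect measured as cell viability by ATP luminescence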
HEK293 [14] = assay: cells; format: functional, cell-based; details: Homo sapiens; remark: listed apart in the source
HEK293 [15] = assay: NOD2 signaling inhibitors in MDP-stimulated cells, cell-based, uHTS, luminescence (AID 2001); format: functional; details: Homo sapiens
HEK293 [16] = assay: inhibition of NOD1-driven NF-kB reporter – cell-based, luminescence, uHTS, primary screen (AID 1578); format: functional; details: Homo sapiens
[17] = target: T6, Nucleotide-binding oligomerization domain-containing protein 1 (Homo sapiens, UniProt Q9Y239); assay: blockers of NOD1 pathway activity – revised, SAR follow-up (AID 2333); format: functional
T6 sequence (Q9Y239 whole entry): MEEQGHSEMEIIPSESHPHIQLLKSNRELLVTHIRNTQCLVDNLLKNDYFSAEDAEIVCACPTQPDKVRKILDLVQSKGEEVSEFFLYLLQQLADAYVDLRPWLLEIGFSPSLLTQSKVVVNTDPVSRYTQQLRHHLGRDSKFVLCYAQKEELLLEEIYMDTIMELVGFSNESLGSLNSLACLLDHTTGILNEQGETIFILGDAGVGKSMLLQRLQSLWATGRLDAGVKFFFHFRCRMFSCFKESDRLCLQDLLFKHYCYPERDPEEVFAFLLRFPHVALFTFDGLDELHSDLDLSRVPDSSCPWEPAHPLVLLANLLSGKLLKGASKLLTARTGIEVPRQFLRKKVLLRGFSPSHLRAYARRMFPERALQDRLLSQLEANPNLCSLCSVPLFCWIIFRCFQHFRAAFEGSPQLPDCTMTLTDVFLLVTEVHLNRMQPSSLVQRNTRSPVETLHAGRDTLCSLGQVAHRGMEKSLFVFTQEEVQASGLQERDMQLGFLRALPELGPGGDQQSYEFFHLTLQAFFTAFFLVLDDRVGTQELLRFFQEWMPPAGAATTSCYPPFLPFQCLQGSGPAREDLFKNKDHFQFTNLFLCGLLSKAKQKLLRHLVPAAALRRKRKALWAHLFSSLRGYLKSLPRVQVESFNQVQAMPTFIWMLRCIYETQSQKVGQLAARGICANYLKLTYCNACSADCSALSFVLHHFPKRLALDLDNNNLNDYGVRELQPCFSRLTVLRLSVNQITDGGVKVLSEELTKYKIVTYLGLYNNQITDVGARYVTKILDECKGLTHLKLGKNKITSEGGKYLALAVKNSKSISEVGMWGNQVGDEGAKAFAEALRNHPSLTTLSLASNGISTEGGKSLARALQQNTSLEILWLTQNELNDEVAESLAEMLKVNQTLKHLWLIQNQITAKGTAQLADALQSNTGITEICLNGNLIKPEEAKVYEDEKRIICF

T4 sequence (P02675 whole entry, the tested form may be a part): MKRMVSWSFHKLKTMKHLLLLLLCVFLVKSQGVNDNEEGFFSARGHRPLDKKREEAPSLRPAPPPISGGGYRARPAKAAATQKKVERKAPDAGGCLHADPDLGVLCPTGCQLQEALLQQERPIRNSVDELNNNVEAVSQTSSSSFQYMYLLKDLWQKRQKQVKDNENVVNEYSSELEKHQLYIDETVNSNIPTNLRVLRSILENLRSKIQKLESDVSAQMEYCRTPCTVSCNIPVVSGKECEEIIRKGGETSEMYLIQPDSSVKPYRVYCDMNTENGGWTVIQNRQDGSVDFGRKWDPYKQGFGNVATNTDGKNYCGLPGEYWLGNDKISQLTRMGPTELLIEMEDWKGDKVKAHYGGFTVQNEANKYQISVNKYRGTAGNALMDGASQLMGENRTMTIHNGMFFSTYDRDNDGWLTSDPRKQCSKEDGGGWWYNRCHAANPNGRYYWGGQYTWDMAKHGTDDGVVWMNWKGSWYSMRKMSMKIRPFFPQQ
Tumor necrosis factor, sequence (P01375 whole entry, the tested form may be a part): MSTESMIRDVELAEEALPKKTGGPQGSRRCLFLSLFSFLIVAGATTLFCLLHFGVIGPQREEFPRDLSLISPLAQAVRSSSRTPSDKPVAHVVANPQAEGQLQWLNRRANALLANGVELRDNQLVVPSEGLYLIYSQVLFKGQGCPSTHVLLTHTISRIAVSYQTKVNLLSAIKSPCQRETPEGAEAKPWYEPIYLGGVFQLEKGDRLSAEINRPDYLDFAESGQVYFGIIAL
C-C chemokine receptor type 6, sequence (P51684 whole entry): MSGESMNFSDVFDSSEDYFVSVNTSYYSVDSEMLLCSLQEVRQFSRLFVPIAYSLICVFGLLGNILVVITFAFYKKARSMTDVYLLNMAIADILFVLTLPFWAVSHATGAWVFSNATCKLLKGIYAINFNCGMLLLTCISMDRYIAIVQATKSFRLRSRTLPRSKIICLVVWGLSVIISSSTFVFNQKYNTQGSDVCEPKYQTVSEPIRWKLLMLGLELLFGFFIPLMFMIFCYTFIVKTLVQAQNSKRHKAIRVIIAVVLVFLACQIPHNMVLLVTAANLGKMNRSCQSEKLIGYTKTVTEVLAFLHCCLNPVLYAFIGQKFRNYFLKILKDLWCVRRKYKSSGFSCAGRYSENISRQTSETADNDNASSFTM
Nucleotide-binding oligomerization domain-containing protein 2, sequence (Q9HC29 whole entry, the tested form may be a part): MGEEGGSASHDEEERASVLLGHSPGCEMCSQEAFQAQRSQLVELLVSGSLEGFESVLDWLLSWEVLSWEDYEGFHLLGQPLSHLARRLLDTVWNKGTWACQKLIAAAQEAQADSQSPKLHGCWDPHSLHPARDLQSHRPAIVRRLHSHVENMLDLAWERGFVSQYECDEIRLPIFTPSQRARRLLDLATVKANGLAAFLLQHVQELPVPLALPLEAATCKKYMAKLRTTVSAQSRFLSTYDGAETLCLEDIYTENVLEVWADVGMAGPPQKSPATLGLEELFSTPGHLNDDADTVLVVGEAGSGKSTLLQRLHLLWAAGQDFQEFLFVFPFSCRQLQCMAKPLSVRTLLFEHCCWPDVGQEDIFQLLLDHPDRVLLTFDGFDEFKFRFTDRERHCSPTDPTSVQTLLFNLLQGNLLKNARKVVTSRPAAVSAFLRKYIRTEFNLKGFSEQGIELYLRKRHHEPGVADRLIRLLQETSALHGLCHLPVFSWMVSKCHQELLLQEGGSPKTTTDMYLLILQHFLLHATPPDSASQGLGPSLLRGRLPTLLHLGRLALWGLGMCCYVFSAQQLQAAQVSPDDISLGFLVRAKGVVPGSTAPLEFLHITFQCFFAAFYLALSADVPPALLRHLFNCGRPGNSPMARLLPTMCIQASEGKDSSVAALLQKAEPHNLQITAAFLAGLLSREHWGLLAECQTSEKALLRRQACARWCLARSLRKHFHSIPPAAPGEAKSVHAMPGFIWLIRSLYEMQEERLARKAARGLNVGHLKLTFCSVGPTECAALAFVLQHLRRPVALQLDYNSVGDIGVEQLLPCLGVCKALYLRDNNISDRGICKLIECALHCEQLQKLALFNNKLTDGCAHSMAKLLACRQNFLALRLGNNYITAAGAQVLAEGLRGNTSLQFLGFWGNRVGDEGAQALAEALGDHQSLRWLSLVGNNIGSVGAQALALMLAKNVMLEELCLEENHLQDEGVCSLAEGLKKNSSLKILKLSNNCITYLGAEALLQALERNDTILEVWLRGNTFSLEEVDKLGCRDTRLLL
Histone-lysine N-methyltransferase NSD2, sequence (O96028 whole entry, the tested form may be a part): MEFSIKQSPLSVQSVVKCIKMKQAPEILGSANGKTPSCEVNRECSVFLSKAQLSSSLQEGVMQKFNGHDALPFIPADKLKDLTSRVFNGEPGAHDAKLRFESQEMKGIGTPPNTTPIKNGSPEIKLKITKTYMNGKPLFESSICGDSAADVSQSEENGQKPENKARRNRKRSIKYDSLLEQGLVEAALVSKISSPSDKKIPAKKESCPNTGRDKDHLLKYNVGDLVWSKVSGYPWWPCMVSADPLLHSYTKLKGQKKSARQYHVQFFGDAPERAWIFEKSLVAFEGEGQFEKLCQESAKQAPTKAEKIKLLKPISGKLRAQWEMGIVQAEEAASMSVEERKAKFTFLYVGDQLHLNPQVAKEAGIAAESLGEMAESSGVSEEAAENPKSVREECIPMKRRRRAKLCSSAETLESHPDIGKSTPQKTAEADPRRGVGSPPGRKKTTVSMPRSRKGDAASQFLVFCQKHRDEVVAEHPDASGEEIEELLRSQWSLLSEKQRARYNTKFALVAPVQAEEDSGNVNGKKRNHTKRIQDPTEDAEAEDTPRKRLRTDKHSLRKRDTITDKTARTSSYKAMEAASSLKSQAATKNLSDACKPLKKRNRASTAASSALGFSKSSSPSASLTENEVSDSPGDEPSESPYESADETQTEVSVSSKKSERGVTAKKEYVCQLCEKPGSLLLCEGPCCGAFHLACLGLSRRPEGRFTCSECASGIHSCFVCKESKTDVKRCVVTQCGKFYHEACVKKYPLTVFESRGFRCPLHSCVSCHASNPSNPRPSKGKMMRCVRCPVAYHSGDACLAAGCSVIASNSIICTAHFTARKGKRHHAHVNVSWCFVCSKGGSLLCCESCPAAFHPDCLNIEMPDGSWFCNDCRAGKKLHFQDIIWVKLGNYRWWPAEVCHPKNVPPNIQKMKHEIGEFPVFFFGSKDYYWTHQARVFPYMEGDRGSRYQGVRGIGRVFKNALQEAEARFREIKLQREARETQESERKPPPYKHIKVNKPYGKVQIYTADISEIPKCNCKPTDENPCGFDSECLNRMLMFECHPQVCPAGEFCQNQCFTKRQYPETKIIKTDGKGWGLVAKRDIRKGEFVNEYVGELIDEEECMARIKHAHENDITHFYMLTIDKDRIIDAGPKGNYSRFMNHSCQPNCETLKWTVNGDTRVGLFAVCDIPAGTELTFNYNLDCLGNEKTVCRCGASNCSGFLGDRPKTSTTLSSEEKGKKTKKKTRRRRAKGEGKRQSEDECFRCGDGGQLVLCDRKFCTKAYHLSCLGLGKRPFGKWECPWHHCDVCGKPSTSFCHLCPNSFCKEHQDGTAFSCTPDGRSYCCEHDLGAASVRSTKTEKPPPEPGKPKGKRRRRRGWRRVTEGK
X-box-binding protein 1, sequence (P17861 whole entry): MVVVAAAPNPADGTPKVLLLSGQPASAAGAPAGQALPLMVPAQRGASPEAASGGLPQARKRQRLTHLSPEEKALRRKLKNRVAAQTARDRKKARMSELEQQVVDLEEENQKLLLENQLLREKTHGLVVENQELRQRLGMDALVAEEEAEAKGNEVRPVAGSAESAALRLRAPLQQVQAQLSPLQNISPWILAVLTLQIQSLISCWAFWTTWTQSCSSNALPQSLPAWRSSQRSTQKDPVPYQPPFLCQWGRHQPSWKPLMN
14-3-3 protein gamma, sequence (P61981 whole entry): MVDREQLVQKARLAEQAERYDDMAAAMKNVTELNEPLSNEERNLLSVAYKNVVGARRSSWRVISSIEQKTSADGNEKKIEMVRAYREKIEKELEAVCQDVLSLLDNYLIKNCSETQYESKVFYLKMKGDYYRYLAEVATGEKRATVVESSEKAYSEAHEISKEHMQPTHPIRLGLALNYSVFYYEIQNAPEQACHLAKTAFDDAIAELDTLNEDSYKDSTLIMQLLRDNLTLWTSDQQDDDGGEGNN
Glutathione-S-transferase, sequence (Q26513 whole entry, the tested form may be a part): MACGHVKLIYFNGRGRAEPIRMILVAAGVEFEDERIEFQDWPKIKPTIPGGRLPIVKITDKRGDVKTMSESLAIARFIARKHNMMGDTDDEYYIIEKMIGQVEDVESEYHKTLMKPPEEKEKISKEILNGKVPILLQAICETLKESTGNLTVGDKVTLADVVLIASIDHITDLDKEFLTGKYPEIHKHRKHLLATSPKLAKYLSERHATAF

CC(C)Cc1ccc(C(C)C(=O)Nc2nccs2)cc1 (stereo not drawn)
Absolute IC50 (XBP1) (X-box-binding protein 1): 10 µM

Cc1cc2c(N)cccc2nn1
AC50 (HeLa): > 350 µM (inactive) | IC50 [1]: 6 µM (active) | IC50 [2]: 27.2 µM (inactive) | EC50 (Protein RecA): 54.6 µM (active) | IC50 [3]: 2.14 µM (active) | AC50 [4]: 4.77 µM (active) | IC50 (Fibrinogen beta chain [5]): > 83.3 µM (inactive) | IC50 (14-3-3 protein gamma): > 50 µM (not active) | IC50 [6]: 52.6 µM (active) | IC50 (Fibrinogen beta chain [7]): > 83.3 µM (inactive) | AC50 [8]: > 380 µM (inactive)

CCN1CCC(O)(/C=C/c2ccc(C)cc2)C(C(=O)/C=C/c2ccc(C)cc2)C1 (stereo not drawn)
IC50 (Beta-galactosidase): > 66.6 µM (inactive) | IC50 [9]: 22.8 µM (inactive)

CS(=O)(=O)c1ccc2nc(NC(=O)c3cccc(NS(=O)(=O)c4ccc(F)c(F)c4)c3)sc2c1
IC50 (Tumor necrosis factor): 16.9 µM (active) | IC50 [10]: 18.4 µM (active) | IC50 (HEK293 [11]): > 20 µM (inactive) | IC50 (HEK293 [12]): > 20 µM (inactive) | IC50 [13]: 23.7 µM (active) | IC50 (HEK293 [14]): > 20 µM (inactive) | IC50 (HEK293 [15]): > 20 µM (inactive) | EC50 (HEK293 [16]): 5.5 µM (active) | IC50 [17]: 3.16 µM (active)

Reference: ChEMBL document CHEMBL1201862, “PubChem BioAssay data set” (2004)
